Assays:
Format in all cases: cell-based, mouse
[1] = test system: NLRP3 inflammasome; experiment: IL-1β release by LPS-primed macrophages stimulated with NLRP3 activators (ELISA); details: LPS-primed
Experimental: Macrophage culture and stimulation—Femurs and tibias from C57BL/6 mice, Ampkα1^−/− mice, and Il10rb^−/− mice at 6-10 weeks of age were used to generate bone-marrow-derived macrophages (BMDM) as described (Hornung et al., 2008). Macrophages were cultured in DMEM supplemented with 10% FBS, 20% L929-cell conditioned medium, and 100 U/ml penicillin-streptomycin for 7-10 days. Bone marrow was isolated from MWS Nlrp3^A350VneoRCreT, FCAS Nlrp3^L351PneoCreT and NOMID Nlrp3^D301NneoCreT conditional knock-in mice (Bonar et al., 2012; Brydges et al., 2009), and were allowed to differentiate over 7 days with addition of fresh mouse recombinant GMCSF every three days. (Z)-4-hydroxitamoxifen at 0.4 μg/ml was added to cells 24 hr prior to treatment to induce the mutant Nlrp3 allele. Immortalized mouse BMDM were grown in DMEM supplemented with 10% FBS and 100 U/ml penicillin-streptomycin. All cells were grown at 37° C. with 5% CO2. NLRP3 inflammasome activation was induced priming for 4 hr with ultrapure LPS (100 ng/ml) followed by treatment with the NLRP3 activators ATP (4 mM) and nigericin (10 μM) for 45 min, unless otherwise indicated, and monosodium urate (MSU) crystals (400 μg/ml) and 1,2-dioleoyl-3-trimethylammoniumpropane (DOTAP) liposomes (50 μg/ml) for 3 hr. In Nlrp3 mutant macrophages IL-1b production was induced by LPS treatment for 16 hr at 37° C., whereas FCAS macrophages were incubated at 32° C. without LPS addition. AIM2 inflammasome activation was induced by 4 hr LPS priming and transfection with lipofectamine 3000 and the AIM2 activator poly(dA:dT) (1 μg/ml) for 8 hr. For choline deprivation experiments, the cells were cultured in CMRL1066 medium with or without choline for 2-3 hr before priming with LPS and kept during the experiment.
(§1) Protein Immunoblotting and ELISA—Mitochondria were isolated using Mitochondria Isolation kit. Whole cell lysates were prepared in NP40 buffer containing a protease inhibitor cocktail and a phosphatase inhibitor cocktail, and supernatants were analyzed by SDS-PAGE. […]

[2] = test system: caspase-1; experiment: Caspase-1 activation in LPS-primed, ATP-treated BMDM (immunoblot); details: ATP-treated BMDM pretreated with RSM932A
Experimental: Macrophage culture and stimulation—Femurs and tibias from C57BL/6 mice, Ampkα1^−/− mice, and Il10rb^−/− mice at 6-10 weeks of age were used to generate bone-marrow-derived macrophages (BMDM) as described (Hornung et al., 2008). Macrophages were cultured in DMEM supplemented with 10% FBS, 20% L929-cell conditioned medium, and 100 U/ml penicillin-streptomycin for 7-10 days. Bone marrow was isolated from MWS Nlrp3^A350VneoRCreT, FCAS Nlrp3^L351PneoCreT and NOMID Nlrp3^D301NneoCreT conditional knock-in mice (Bonar et al., 2012; Brydges et al., 2009), and were allowed to differentiate over 7 days with addition of fresh mouse recombinant GMCSF every three days. (Z)-4-hydroxitamoxifen at 0.4 μg/ml was added to cells 24 hr prior to treatment to induce the mutant Nlrp3 allele. Immortalized mouse BMDM were grown in DMEM supplemented with 10% FBS and 100 U/ml penicillin-streptomycin. All cells were grown at 37° C. with 5% CO2. […]
as §1

[3] = test system: NLRP3 inflammasome components; experiment: Immunoblot of NLRP3 inflammasome components in BMDM; details: BMDM pretreated with RSM932A
Experimental: Protein Immunoblotting and ELISA—Mitochondria were isolated using Mitochondria Isolation kit. Whole cell lysates were prepared in NP40 buffer containing a protease inhibitor cocktail and a phosphatase inhibitor cocktail, and supernatants were analyzed by SDS-PAGE. Proteins were transferred into PVDF membranes, blocked in 5% BSA and 1×TBST for 1 hr, and incubated with indicated antibodies overnight. Secondary antibodies were added for 1 hr and detection was done using CLARITY™ Western ECL Substrate (Biorad). Paired antibodies (capture and detection) and standard recombinant mouse IL-1β (R&D Systems), and TNF and IL-6 (eBioscience) were used to determine cytokine concentrations according to manufacturer's instructions.

[4] = test system: BMDM; experiment: Mitochondrial reactive oxygen species (MitoSOX); details: BMDM pretreated with RSM932A, LPS+DOTAP or LPS+nigericin
Experimental: Mitochondrial Function—Mitochondrial membrane potential (Ψm) was measured using TMRM (#T668, Life Technologies) according to manufacturer's instructions. Briefly, RSM932A-pretreated BMDM and shCtrl and shChoKα iBMDM were primed with LPS for 4 hr. Cells were stained with 200 nM TMRM for 30 min at 37° C., and then treated with CCCP (5 μM) for 5 min. After washing twice, fluorescence intensity was determined per manufacturer's instructions using a FilterMax F5 multimode plate reader (Molecular Devices), Mitochondrial reactive oxygen species (mtROS) was measured using MitoSOX (Invitrogen) as described (Zhong et al., 2016c). […] After washing with PBS, fluorescence intensity was determined at 510/580 nm using a FilterMax F5 plate reader. NAD^+/NADH ratio was measured using NAD^+/NADH Cell-Based Assay kit according to manufacturer's instructions (Cayman Chemical Company). […] Absorbance was measured at 450 nm using FilterMax F5 plate reader. Complex V ATP synthase activity was measured in mitochondria isolated from BMDM treated with LPS for 24 hr using Complex V Activity Assay kit (Cayman Chemical Company) according to manufacturer's instructions. Absorbance was measured at 340 nm at 30-second intervals for 30 min using a FilterMax F5 plate reader. Cellular ATP was measured after 24 hr LPS stimulation using CellTiter-Glo Luminescent Assay (Promega) as described (Ip et al., 2017). […]

[5] = test system: BMDM; experiment: Cytosolic mtDNA (QPCR); details: RSM932A-pretreated BMDM, LPS-primed, ATP or nigericin
Experimental: Cellular fractionation and measurement of cytosolic mtDNA—BMDM were primed with LPS and stimulated with an NLRP3 inflammasome activator. Cellular fractionation was performed using Mitochondrial Isolation kit (ThermoScientific) according to manufacturer's instructions. Cytosolic mtDNA was analyzed as described (Nakahira et al., 2011). Briefly, DNA was isolated from 300 μl of the cytosolic fractions using All Prep DNA/RNA kit, and mitochondrial DNA encoding cytochrome c oxidase 1 and D-Loop were measured by QPCR with an equal volume of the DNA solution. Nuclear DNA encoding 18S ribosomal RNA and Tert was used for normalization. Primer sequences were obtained from the NIH qPrimerDepot (mouseprimerdepot.nci.nih.gov) and provided by Integrated DNA Technologies, as set forth below.

C/[N+](c1ccc(Cl)cc1)=c1\ccn(Cc2ccc(-c3ccc(Cn4cc/c(=[N+](/C)c5ccc(Cl)cc5)c5ccccc54)cc3)cc2)c2ccccc12 [RSM932A]
IL-1β production ([1]; BMDM pretreated overnight with 5 μM RSM932A, ATP or MSU-stimulated, compared with ChoKα knockdown (reduced)): produced a similar effect | reduction of MSU-induced IL-1β release ([1]; MSU-stimulated BMDM pretreated overnight with 5 μM RSM932A, p<0.005): 71% | caspase-1 activation [2]: inhibited | expression of NLRP3 inflammasome components (caspase-1, NLRP3, ASC, pro-IL-1β induced by LPS) [3]: did not alter | production of mitochondrial reactive oxygen species (mtROS) [4]: attenuated | amount of cytosolic mtDNA [5]: reduced

— patent US12458659B2, “Methods for treating macrophage-mediated diseases, and methods of identifying agents useful therefore” (The Regents of the University of California, priority 2019, dated 2025)
